The source of these data is patent publication US4740502A, “Semisynthetic erythromycin antibiotics” (Abbott Laboratories, priority 1986, dated 1988).

Molecules are shown by their SMILES. Values after ≈ are worked out from the molar mass of the structure shown.

A word on the MIC: it is the lowest concentration found to suppress growth. A high value points to a need for much substance.

In data set [1] the test system is stomach, duodenum and jejunum. As to the kind of experiment: Gastrointestinal motility (stimulating activity) in a dog model, strain gauges. The procedure:
Contractions in the gut were recorded with surgically implanted strain gauges. The contractile scores were determined according to the method of Jacoby, et al., as described in "Gastrointestinal Actions of Metoclopramide," Gastroenterology, Vol. 52, No. 4 (1967), pp. 676-684 by giving a numerical score to the height of each recorded contraction in the one hour period after administration of the test compound. […] Ratios were calculated for the stomach, duodenum and jejunum, and a final arithmetic mean index was calculated and reported in Table I.

For data set [2], the system named is E. coli H560. As to the kind of experiment: Agar dilution MIC, E. coli H560. The settings on record: Escherichia coli, H560, 22 h. For orientation: Agar dilution tests growth on a series of plates holding different concentrations.
Data set [3] deals with Strep. pyogenes 930. As to the kind of experiment: Agar dilution MIC, Strep. pyogenes 930. The settings on record: Streptococcus pyogenes, 930, 22 h.
For data set [4], the system named is Staph. epidermidis 3519. As to the kind of experiment: Agar dilution MIC, Staph. epidermidis 3519. The settings on record: Staphylococcus epidermidis, 3519, 22 h.
The test system of data set [5] is Strep. faecium ATCC 8043. The data set is described as follows: Agar dilution MIC, Strep. faecium ATCC 8043. The settings on record: Enterococcus faecium, ATCC8043, 22 h.
Data set [6] deals with Acinetobacter SP CMX 669. As to the kind of experiment: Agar dilution MIC, Acinetobacter SP CMX 669. The settings on record: SPCMX669, 22 h.
Data set [7] relates to Ent. aerogenes ATCC 10348. The data set is described as follows: Agar dilution MIC, Ent. aerogenes ATCC 10348. The settings on record: Klebsiella aerogenes, ATCC10348, 22 h.
In data set [8] the test system is Pseudomonas aeruginosa 5007. As to the kind of experiment: Agar dilution MIC, Pseudomonas aeruginosa 5007. As to conditions: Pseudomonas aeruginosa, 5007, 22 h.
Data set [9] concerns Providencia stuartii CMX 640. The data set is described as follows: Agar dilution MIC, Providencia stuartii CMX 640. The settings on record: CMX640, 22 h.
In data set [10] the test system is Pseudomonas aeruginosa K799/WT. The data set is described as follows: Agar dilution MIC, Pseudomonas aeruginosa K799/WT. As to conditions: 22 h.
For data set [11], the system named is Pseudomonas aeruginosa K799/61. As to the kind of experiment: Agar dilution MIC, Pseudomonas aeruginosa K799/61. As to conditions: K799/61, 22 h.
In data set [12] the test system is E. coli SS. As to the kind of experiment: Agar dilution MIC, E. coli SS. The settings on record: Escherichia coli, 22 h.
For data set [13], the system named is E. coli JUHL. As to the kind of experiment: Agar dilution MIC, E. coli JUHL. As to conditions: Escherichia coli, 22 h.
Data set [14] deals with E. coli DC-2. As to the kind of experiment: Agar dilution MIC, E. coli DC-2. As to conditions: Escherichia coli, DC2, 22 h.
In data set [15] the test system is E. coli KNK 437. As to the kind of experiment: Agar dilution MIC, E. coli KNK 437. As to conditions: Escherichia coli, KNK437, 22 h.
Data set [16] concerns Strep. bovis A5169. The data set is described as follows: Agar dilution MIC, Strep. bovis A5169. The settings on record: Streptococcus equinus, A5169, 22 h.
Data set [17] relates to Staph. aureus A5177. The data set is described as follows: Agar dilution MIC, Staph. aureus A5177. As to conditions: Staphylococcus aureus, A5177, 22 h.
For data set [18], the system named is Strep. pyogenes EES61. The data set is described as follows: Agar dilution MIC, Strep. pyogenes EES61. The settings on record: Streptococcus pyogenes, EES61, 22 h.
Data set [19] concerns Staph. aureus CMX 686B. The data set is described as follows: Agar dilution MIC, Staph. aureus CMX 686B. As to conditions: Staphylococcus aureus, CMX686B, 22 h.
Data set [20] concerns Micrococcus luteus 9341. The data set is described as follows: Agar dilution MIC, Micrococcus luteus 9341. As to conditions: Micrococcus luteus, 9341, 22 h.
For data set [21], the system named is Micrococcus luteus 4698. As to the kind of experiment: Agar dilution MIC, Micrococcus luteus 4698. The settings on record: Micrococcus luteus, 4698, 22 h.
The subject of data set [22] is Staph. aureus ATCC 6538P. As to the kind of experiment: Agar dilution MIC, Staph. aureus ATCC 6538P. As to conditions: Staphylococcus aureus, ATCC6538P, 22 h.
The subject of data set [23] is Pseudomonas cepacia 2961. The data set is described as follows: Agar dilution MIC, Pseudomonas cepacia 2961. As to conditions: Burkholderia cepacia, 2961, 22 h.
Data set [24] has as its system Strep. agalactiae CMX 508. The data set is described as follows: Agar dilution MIC, Strep. agalactiae CMX 508. As to conditions: Streptococcus agalactiae, CMX508, 22 h.
Data set [25] concerns Klebsiella pneumoniae 8045. As to the kind of experiment: Agar dilution MIC, Klebsiella pneumoniae 8045. As to conditions: Klebsiella pneumoniae, 8045, 22 h.
The subject of data set [26] is Staph. epidermidis 3519 RARI. The data set is described as follows: Agar dilution MIC, Staph. epidermidis 3519 RARI. As to conditions: Staphylococcus epidermidis, 22 h.
Data set [27] deals with Pseudomonas aeruginosa BMH10. As to the kind of experiment: Agar dilution MIC, Pseudomonas aeruginosa BMH10. As to conditions: BMH10, 22 h.
Where [28] appears, read: 4 mg/kg intravenously, one hour period, mean of stomach, duodenum and jejunum ratios to erythromycin A lactobionate.

Take `CC[C@H]1OC(=O)[C@H](C)[C@@H](O[C@H]2C[C@@](C)(OC)[C@@H](O)[C@H](C)O2)[C@H](C)[C@@H](O[C@@H]2O[C@H](C)C[C@H](N(C)C)[C@H]2O)[C@](C)(OC)C[C@@H](C)C(=O)[C@H](C)[C@@H](O)[C@]1(C)O` [6-O--Me--Ery A, 6-O-methyl erythromycin A]: in data set [1] (in vivo, iv, 4 mg/kg), the “Gastrointestinal Motility Index” value is 0.37 and the “stimulation of the gastrointestinal tissues” value (“stimulation” below) is “less of a gastrointestinal response”.
Regarding `CC[C@H]1OC(=O)[C@H](C)[C@@H](O[C@H]2C[C@@](C)(OC)[C@@H](O)[C@H](C)O2)[C@H](C)[C@@H](O[C@@H]2O[C@H](C)C[C@H](N(C)C)[C@H]2O)[C@](C)(O)C[C@@H](C)C(=O)[C@H](C)[C@@H](O)[C@H]1C` [Ery B, erythromycin B], the “Gastrointestinal Motility Index” value in data set [1] (in vivo, iv, 4 mg/kg) is on record as 2.47.
For the molecule `CC[C@H]1OC(=O)[C@H](C)[C@@H](O[C@H]2C[C@@](C)(OC)[C@@H](O)[C@H](C)O2)[C@H](C)[C@@H](O[C@@H]2O[C@H](C)C[C@H](N(C)C)[C@H]2O)[C@](C)(O)C[C@@H](C)C(=O)[C@H](C)[C@@H](O)[C@]1(C)O` [Erythromycin A], the MIC was 6.2 µg/mL (≈ 8.45 µM) in data set [2]; over 100 µg/mL in data set [3]; 0.1 µg/mL (≈ 0.136 µM) in [4]; 0.05 µg/mL (≈ 0.0681 µM) in data set [5]; 3.1 µg/mL (≈ 4.22 µM) in data set [6]; 50 µg/mL (≈ 68.1 µM) in data set [7]. The MIC in [8] was over 100 µg/mL; in [9], over 100 µg/mL; in [10] it was 50 µg/mL (≈ 68.1 µM); in data set [11] it was 1.56 µg/mL (≈ 2.13 µM).
Take `CC[C@H]1OC(=O)[C@H](C)[C@@H](O[C@H]2C[C@@](C)(OC)[C@@H](OC(N)=O)[C@H](C)O2)[C@H](C)[C@@H](O[C@@H]2O[C@H](C)C[C@H](N(C)C)[C@H]2O)[C@](C)(OC)C[C@@H](C)C(=O)[C@H](C)[C@@H](O)[C@]1(C)O` [Example 1, 6-O-methyl-erythromycin A-4"-carbamate]: in [1] (setting [28]), the “Gastrointestinal Motility Index” value was 0.03. Moreover, the MIC in data set [12] came out at 0.2 µg/mL (≈ 0.253 µM); in [13], 12.5 µg/mL (≈ 15.8 µM); in data set [14] it was 50 µg/mL (≈ 63.2 µM); in data set [2], 6.2 µg/mL (≈ 7.84 µM); in data set [15] it was 25 µg/mL (≈ 31.6 µM); in data set [16], 0.02 µg/mL (≈ 0.0253 µM). The MIC in data set [17] was 0.39 µg/mL (≈ 0.493 µM); in data set [3], over 100 µg/mL; in [18], 0.01 µg/mL (≈ 0.0126 µM); in data set [19], 0.05 µg/mL (≈ 0.0632 µM); in data set [4], 0.05 µg/mL (≈ 0.0632 µM); in data set [20], 0.02 µg/mL (≈ 0.0253 µM). Besides, the MIC in [21] is 0.39 µg/mL (≈ 0.493 µM); in [22], 0.02 µg/mL (≈ 0.0253 µM); in data set [5] it was 0.05 µg/mL (≈ 0.0632 µM); in [23], 50 µg/mL (≈ 63.2 µM); in data set [6], 6.2 µg/mL (≈ 7.84 µM); in [24], 0.02 µg/mL (≈ 0.0253 µM). The MIC in data set [7] turned out to be 25 µg/mL (≈ 31.6 µM); in data set [25] it was 50 µg/mL (≈ 63.2 µM); in data set [8] it was 50 µg/mL (≈ 63.2 µM); in data set [26] it was 0.1 µg/mL (≈ 0.126 µM); in [9], 100 µg/mL (≈ 126 µM); in data set [27], 50 µg/mL (≈ 63.2 µM). Also, the MIC was determined as 50 µg/mL (≈ 63.2 µM) in data set [10] and 1.56 µg/mL (≈ 1.97 µM) in data set [11].
For `CC[C@H]1OC(=O)[C@H](C)[C@@H](O[C@H]2C[C@@](C)(OC)[C@@H](OC(N)=O)[C@H](C)O2)[C@H](C)[C@@H](O[C@@H]2O[C@H](C)C[C@H](N(C)C)[C@H]2O)[C@](C)(O)C[C@@H](C)C(=O)[C@H](C)[C@@H](O)[C@H]1C` [Example 2, Erythromycin B-4"-carbamate], the “Gastrointestinal Motility Index” value in [1] (setting [28]) turned out to be 0.17.
Same read-out and setting: the same measure for `CC[C@H]1OC(=O)[C@H](C)[C@@H](O[C@H]2C[C@@](C)(OC)[C@@H](OC(N)=O)[C@H](C)O2)[C@H](C)[C@@H](O[C@@H]2O[C@H](C)C[C@H](N(C)C)[C@H]2O)[C@](C)(O)C[C@@H](C)C(=O)[C@H](C)[C@@H](O)[C@]1(C)O` [Example 4, Erythromycin A-4"-carbamate]: 0.11.
`CC[C@H]1OC(=O)[C@H](C)[C@@H](O[C@H]2C[C@@](C)(OC)[C@@H](O)[C@H](C)O2)[C@H](C)[C@@H](O[C@@H]2O[C@H](C)C[C@H](N(C)C)[C@H]2O)[C@](C)(O)C[C@@H](C)C(=O)[C@H](C)[C@@H](O)[C@]1(C)O` [erythromycin A lactobionate]: in [1] (in vivo, iv, 4 mg/kg), the “stimulation” value was “pronounced stimulation of the stomach, duodenum, jejunum and ileum”.
Consider `CC[C@H]1OC(=O)[C@H](C)[C@@H](O[C@H]2C[C@@](C)(OC)[C@@H](O)[C@H](C)O2)[C@H](C)[C@@H](O[C@@H]2O[C@H](C)C[C@H](N(C)C)[C@H]2O)[C@](C)(O)C[C@@H](C)C(=O)[C@H](C)[C@@H](O)[C@H]1C` [erythromycin B lactobionate], for which the “stimulation” value in data set [1] (in vivo, iv, 4 mg/kg) is “pronounced stimulation of the stomach, duodenum, jejunum and ileum”.
